Data: patent US20250170112A1, “ADENOSINE LIGANDS FOR THE TREATMENT OF NEUROLOGICAL DISORDERS” (Lucy Therapeutics, Inc., priority 2022, published 2025)

Columns and labels:
[1] = target: T1, human Adenosine A1 receptor (Homo sapiens, UniProt P30542); experiment: GTPγS scintillation proximity assay, agonist testing; assay type: biochemical; conditions: agonist activity; membrane extracts of CHO-K1 cells expressing recombinant human A1; read-out: A1AR EC50
T1 construct: host or cells: CHO-K1
T1 sequence (P30542 1-326): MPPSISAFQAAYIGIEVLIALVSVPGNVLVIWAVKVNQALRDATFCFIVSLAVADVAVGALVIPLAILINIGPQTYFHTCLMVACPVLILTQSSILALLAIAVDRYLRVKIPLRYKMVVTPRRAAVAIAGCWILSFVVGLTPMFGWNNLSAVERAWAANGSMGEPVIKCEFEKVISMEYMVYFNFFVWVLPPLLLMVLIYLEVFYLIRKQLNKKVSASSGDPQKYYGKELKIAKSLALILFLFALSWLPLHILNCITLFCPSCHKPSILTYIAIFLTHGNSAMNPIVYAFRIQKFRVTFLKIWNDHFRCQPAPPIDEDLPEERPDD
Description: (§1) SPA ^35S-GTPγS experiments were conducted with Epics Therapeutics membrane preparations. cAMP HTRF assays were conducted with recombinant cell lines.
• Assay buffer: 20 mM HEPES pH 7.4; 100 mM NaCl, 10 μg/mL saponin, MgCl2 at optimized concentration for the specific receptor. • Membranes: membrane extracts prepared from CHO-K1 cells expressing recombinant human Adenosine A1 receptor, thawed on ice, diluted in assay buffer and kept on ice. • GDP: diluted in assay buffer at the optimized concentration for the specific receptor Beads: PVT-WGA (Perkin Elmer, RPNQ001), diluted in assay buffer at 50 mg/mL (0.5 mg/10 μL) • GTPγ^35S: (Perkin Elmer, NEG030X), diluted in assay buffer for a final 0.1 nM assay concentration
Protocol for agonist testing: membranes are mixed with GDP (volume:volume). In parallel, GTPγ[^35S] is mixed with the beads (volume:volume) just before starting the reaction. The following reagents are successively added in the wells of an Optiplate (Perkin Elmer): 50 μL of test or reference ligand, 25 μL of the membranes:GDP mix, and 25 μL of the GTPγ[^35S]:beads mix. The plates are covered with a top seal, mixed on an orbital shaker for 2 min, and then incubated for 1 hour at room temperature. Then the plates are centrifuged for 10 min at 2000 rpm, incubated at room temperature and counted for 30 sec/well with a PerkinElmer TopCount™ reader. • Conditions for the GTPγS scintillation proximity assay are shown in Table 14.

human A2B = target: T2, human A2B (Homo sapiens, UniProt P29275); experiment: cAMP HTRF assay for Gs coupled receptor, agonist test; assay type: cell-based; conditions: agonist activity; HEK293 cells expressing recombinant human A2B; read-out: A2BAR EC50
T2 construct: expressed in transfected cells; host or cells: HEK293
T2 sequence (P29275 1-332): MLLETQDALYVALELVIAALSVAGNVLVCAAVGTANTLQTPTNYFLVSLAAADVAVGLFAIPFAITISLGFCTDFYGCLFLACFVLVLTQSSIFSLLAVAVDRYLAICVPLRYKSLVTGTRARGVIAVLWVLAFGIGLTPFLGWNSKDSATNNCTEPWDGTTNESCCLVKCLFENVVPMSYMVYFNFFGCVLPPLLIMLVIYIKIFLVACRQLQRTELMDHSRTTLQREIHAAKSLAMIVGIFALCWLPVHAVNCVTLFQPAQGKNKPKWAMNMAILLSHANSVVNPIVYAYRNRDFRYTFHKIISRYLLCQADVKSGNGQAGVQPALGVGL
Description: as §1
Dose response curves are performed in parallel with the reference compounds.
For agonist test (96 well): 12 μL of cells are mixed with 12 μL of the test compound at increasing concentrations and then incubated 30 min at room temperature. After addition of the lysis buffer containing cAMP-d2 and anti-cAMP cryptate detection reagents, plates are incubated 1 hour incubation at room temperature, and fluorescence ratios are measured according to the manufacturer specification, with the HTRF kit.

Structure (SMILES) | EC50 [1] [µM] | EC50 (human A2B) [µM]
N#Cc1c(N)nc(OCC2CCCCO2)c(C#N)c1-c1ccc(OC2COC2)cc1 (stereo not drawn) [Compound 299] | > 10 | > 10
COCCOc1ccc(-c2c(C#N)c(N)nc(SCCNC(C)=O)c2C#N)cc1 [Compound 120] | 1 | > 10
COCCOc1ccc(-c2c(C#N)c(N)nc(S[C@@H](C)c3cccnc3)c2C#N)cc1 [Compound 247] | 0.00119 | > 10
N#Cc1c(N)nc(SCC2COCOC2)c(C#N)c1-c1ccc(OC2COC2)cc1 [Compound 297] | 1.1 | > 10
N#Cc1c(N)nc(SCC2CCOC2)c(C#N)c1-c1ccc(OC2CC(O)C2)cc1 (stereo not drawn) [Compound 324] | 0.0213 | > 10
COCCOc1ccc(-c2c(C#N)c(N)nc(SCCOC)c2C#N)cc1 [Compound 147] | 0.055 | 8.56
COCCOc1ccc(-c2c(C#N)c(SCc3cccnn3)nc(N3CC(F)C3)c2C#N)cc1 [Compound 238] | > 10 | > 10
N#Cc1c(N)nc(SCc2ncccn2)c(C#N)c1-c1ccc(OCCO)cc1 [Compound 176] | 0.034 | 0.0071
N#Cc1c(N)nc(SCC2COC2)c(C#N)c1-c1ccc(OCCO)cc1 [Compound 319] | 0.00153 | 0.401
Cc1nc(SCCC(F)(F)F)c(C#N)c(-c2ccc(OCCO)cc2)c1C#N [Compound 48] | > 10 | 0.0426
N#Cc1c(N)nc(SCc2cccnc2)c(C#N)c1-c1ccc(OCC(O)C(F)(F)F)cc1 (stereo not drawn) [Compound 65] | 0.309 | 0.0019
CC(C)(O)COc1ccc(-c2c(C#N)c(SCc3cccnc3)nc(N3CCC3)c2C#N)cc1 [Compound 49] | 0.311 | 0.065
COCC(F)(F)Oc1ccc(-c2c(C#N)c(N)nc(SCc3cccnc3)c2C#N)cc1 [Compound 306] | 0.353 | > 10
N#Cc1c(N)nc(OCc2cccnc2)c(C#N)c1-c1ccc(OCCO)cc1 [Compound 159] | 0.041 | 0.0033
N#Cc1c(N)nc(SCCC(F)(F)F)c(C#N)c1-c1ccc(OCCO)cc1 [Compound 113] | 0.316 | ≥ 10
COCCOc1ccc(-c2c(C#N)c(N)nc(SCc3ccncn3)c2C#N)cc1 [Compound 232] | 0.00151 | > 10
CC(O)COc1ccc(-c2c(C#N)c(N)nc(SCC3COC3)c2C#N)cc1 (stereo not drawn) [Compound 316] | 0.0108 | 0.305
N#Cc1cnc(SCc2cccnc2)c(C#N)c1-c1ccc(OCCO)cc1 [Compound 84] | 0.044 | 0.0068
N#Cc1c(N)nc(SCc2ccnnc2)c(C#N)c1-c1ccc(OCCO)cc1 [Compound 162] | 0.011 | 0.0007
COCCOc1ccc(-c2c(C#N)c(N)nc(SCC(=O)O)c2C#N)cc1 [Compound 68] | > 10 | 4.23
COCCOc1ccc(-c2c(C#N)c(N)nc(SCc3cccc4[nH]ncc34)c2C#N)cc1 [Compound 214] | > 10 | > 10
COCCOc1ccc(-c2c(C#N)c(N)nc(SCc3ccc4cc[nH]c4c3)c2C#N)cc1 [Compound 44] | 0.0343 | > 10
COCCOc1ccc(-c2c(C#N)c(N)nc(S[C@@H](C)c3ccccn3)c2C#N)cc1 [Compound 244] | > 10 | > 10
COCCOc1ccc(-c2c(C#N)cnc(SCC3COC3)c2C#N)cc1 [Compound 64] | 0.281 | > 10
COCCOc1ccc(-c2c(C#N)c(SCc3cncnc3)nc(N3CC(F)C3)c2C#N)cc1 [Compound 249] | > 10 | > 10
N#Cc1c(N)nc(NCc2cccnc2)c(C#N)c1-c1ccc(OCCO)cc1 [Compound 161] | 0.368 | 0.159

Structure (SMILES) | EC50 [1] [µM] | EC50 (human A2B) [µM]
N#Cc1c(N)nc(SCC2COC2)c(C#N)c1-c1ccc(OC2CCOC2)cc1 (stereo not drawn) [Compound 219] | 0.154 | > 10
N#Cc1c(N)nc(SCC2OCCCO2)c(C#N)c1-c1ccc(OC2COC2)cc1 [Compound 291] | 0.208 | 9.89
COCCOc1ccc(-c2c(C#N)c(N)nc(SCC3CCO3)c2C#N)cc1 (stereo not drawn) [Compound 112] | 0.944 | > 10
CN(C)c1nc(SCc2cccnc2)c(C#N)c(-c2ccc(OC(F)(F)CO)cc2)c1C#N [Compound 254] | > 10 | > 10
N#Cc1c(N)nc(SCc2cccnc2)c(C#N)c1-c1ccc(O[C@@H]2CCOC2)cc1 [Compound 236] | 0.164 | 0.0493
N#Cc1c(N)nc(SCC2COC2)c(C#N)c1-c1ccc(OC(F)(F)CO)cc1 [Compound 311, 2-Amino-4-[4-(1,1-difluoro-2-hydroxy-ethoxy)phenyl]-6-(oxetan-3-ylmethylsulfanyl)pyridine-3,5-dicarbonitrile] | 0.00718 | > 10
COCCOc1ccc(-c2c(C#N)c(SCc3cnccn3)nc(N3CCC3)c2C#N)cc1 [Compound 21] | 3.52 | > 10
N#Cc1c(N)nc(SCC2CCOC2)c(C#N)c1-c1ccc(OC2COC2)cc1 (stereo not drawn) [Compound 24] | 0.0098 | > 10
CC(C)(O)COc1ccc(-c2c(C#N)c(N)nc(SCC3COC3)c2C#N)cc1 [Compound 317] | 0.0887 | > 10
CN(C)CCSc1nc(N)c(C#N)c(-c2ccc(OCCO)cc2)c1C#N [Compound 132] | > 10 | 0.645
COc1cccc(CSc2nc(N)c(C#N)c(-c3ccc(OC4COC4)cc3)c2C#N)c1 [Compound 33] | 0.0079 | 0.563
COCCOc1ccc(-c2c(C#N)cnc(SCc3cccnc3)c2C#N)cc1 [Compound 83, 4-[4-(2-Methoxyethoxy)phenyl]-2-(3-pyridylmethylthio)-pyridine-3,5-dicarbonitrile] | 0.282 | > 10
CC(=O)NCCSc1nc(N)c(C#N)c(-c2ccc(OCCO)cc2)c1C#N [Compound 119] | 0.161 | 0.925
N#Cc1c(N)nc(SCCC2CCO2)c(C#N)c1-c1ccc(OCCO)cc1 (stereo not drawn) [Compound 10] | > 10 | 3.76
N#Cc1c(N)nc(SCC2(O)COC2)c(C#N)c1-c1ccc(OCCO)cc1 [Compound 313] | 0.055 | > 10
CNc1nc(SCC2COC2)c(C#N)c(-c2ccc(OC3COC3)cc2)c1C#N [Compound 230] | 0.0052 | > 10
COCCOc1ccc(-c2c(C#N)c(SCc3cccnc3)nc(N3CCCC3)c2C#N)cc1 [Compound 107] | 0.097 | > 10
N#Cc1c(N)nc(SCc2cccnn2)c(C#N)c1-c1ccc(OC2COC2)cc1 [Compound 234] | 0.00122 | 0.00202
CC(O)COc1ccc(-c2c(C#N)c(SCc3cccnc3)nc(N3CCCC3)c2C#N)cc1 (stereo not drawn) [Compound 52] | 0.0942 | 0.0053
N#Cc1c(SCc2cccnc2)nc(N2CCCC2)c(C#N)c1-c1ccc(OCCOC(F)F)cc1 [Compound 257] | > 10 | > 10
COCCOc1ccc(-c2c(C#N)c(SCc3cccnc3)nc(N3CC(F)C3)c2C#N)cc1 [Compound 277] | 0.0239 | > 10
N#Cc1c(SCCC(N)=O)nc(N2CCCC2)c(C#N)c1-c1ccc(OCCO)cc1 [Compound 96] | > 10 | 0.097
COCCOc1ccc(-c2c(C#N)c(N)nc(SCc3cncc4[nH]ccc34)c2C#N)cc1 [Compound 216] | > 10 | > 10
N#Cc1c(N)nc(SC2CCOCC2)c(C#N)c1-c1ccc(OC2COC2)cc1 [Compound 31] | 0.596 | > 10
COCCOc1ccc(-c2c(C#N)c(N)nc(SCc3ccnnc3)c2C#N)cc1 [Compound 194] | 0.071 | > 10
